Legend:
[1] = test system: Parkinson's disease; conditions: cited from earlier work
[2] = test system: Parkinson's disease; test: Unified Parkinson's Disease Rating Scale (UPDRS) Part III motor examination of a patient; format: in vivo, human; conditions: Patient 1
Method: Patent 1, a person, was administered Part III (motor examination) of the Unified Parkinson's Disease Rating Scale (hereinunder abbreviated as UPDRS) and diagnosed as having Parkinson=3 s disease (scoring a 20 in the test). After a period of evaluation of drug therapy options, the patient was prescribed pergolide, 0.25 mg tid and selegiline 5 mg po. After six (6) months on drug therapy, the patient was once again examined with the UPDRS motor subset and scored 16.5. After three (3) months on the drug, 25 mg of VIOXX, once a day was added to the treatment regime. After four (4) additional months, the patient was once again administered the UPDRS, this time scoring a 6.0. After six (6) months on the VIOXX tripartite therapy, the patient was again administered the UPDRS motor examination and scored 4.0. (see Fahn S, Elton R L, Members of the UPDRS Development Committee. Unified Parkinson's disease rating scale. In: Fahn S, Marsden C D, Calne D, Goldstein M, eds. Recent developments in Parkinson=3 s disease, Vol II. Florham Park, N.J.: Macmillan Healthcare Information, 1987:153-163, 293-304): […]

[3] = test system: Parkinson's disease; test: Patient-reported tremor in a Parkinson's disease patient; format: in vivo, human; conditions: VIOXX 25 mg once a day added to Endo L-C 100-25 TID
Method: Patient 8 (person one), an adult, was diagnosed as having Parkinson's disease. After evaluation the patient was prescribed Endo L-C 100-25, TID. Approximately three years later, the patient began taking VIOXX (25 mg) once a day. After three weeks, patient noticed that severity of tremors had decreased and the frequency between the tremors had increased. In addition, night time tremors, those associated with sleeping, had dramatically subsided (i.e. by up to 90%). Overall, the patient reports that the tremors have subsided nearly 40%.

## NC12CC3CC(CC(C3)C1)C2 [Amantadine, amantadine]
[1]; 100 to 300 mg/day po
  patients for whom useful in treating early, mild parkinsonism: 50%

## C#CCN(C)[C@H](C)Cc1ccccc1 [Selegiline, selegiline]
[1]; used as initial treatment
  delay of the initiation of levodopa: about 1 yr

## CS(=O)(=O)c1ccc(C2=C(c3ccccc3)C(=O)OC2)cc1 [VIOXX, rofecoxib]
[2]; 25 mg VIOXX once a day added to pergolide and selegiline, after four additional months
  UPDRS score: 6.0
[2]; after six months on the VIOXX tripartite therapy (VIOXX 25 mg once a day, pergolide, selegiline)
  UPDRS motor examination score: 4.0
[3]; Patient 8 (person one), after three weeks
  severity of tremors: decreased
[3]; Patient 8
  night time tremors (associated with sleeping) subsided: up to 90%
  tremors subsided overall (patient report): ~40%
[3]; Patient 8, after three weeks
  frequency between the tremors: increased

## N[C@@H](Cc1ccc(O)c(O)c1)C(=O)O [levodopa]
[1]; after 2 to 5 yr of treatment
  patients beginning to experience fluctuations in their response (wearing off or on-off effect): > 50%

Reference: patent US20060154932A1, “Pharmaceutical compositions and method of treating parkinson's disease” (priority 2002, published 2006)
